Results as given in patent publication US3996359A, “Novel stereoisomeric component A of stereoisomeric mixtures of 2'-unsymmetrical 16,17-methylenedioxy steroid 21-acylates, compositions thereof, and method of treating therewith” (AB Bofors, priority 1972, dated 1976).

System: rats subjected to adrenalectomy (granuloma around implanted cotton wads)
Experiment: granulom test (cotton-pellet test) on rats subjected to adrenalectomy: granuloma growth, thymus weight, body weight increase
Format: in vivo, rat (Sprague-Dawley)
Settings: for Dose required to obtain 50% inhibition of Granuloma growth: Table 3, adrenalectomized young male Sprague-Dawley rats, topical in implanted cotton wads, day 8; for Dose required to obtain 25% inhibition of Body weight Increase / Dose required to obtain 50% inhibition of Thymus weight: 11520 min
Text: In the following this active stereoisomeric component will always be designated B. As regards the steroids referred to in connection with the present invention the stereoisomeric mixture as well as the individual stereoisomeric components A and B have been investigated with regard to antiinflammatory activity in granulom test on rats subjected to adrenalectomy. The experimental procedure used corresponds largely to that described by G. Engelhardt: Arzneimittel-Forschung, 13, p. 588, 1963. According to this procedure the test substances are applied topically in the implanted cottom wads. It is thereby possible to study the local antiinflammatory effect in granulomas and also systemic effects in the form of retrogression of thymus and inhibition of bodyweight growth.
Young male rats of the Sprague-Dawley strain weighing about 110-130 g were subjected to adrenalectomy under ether narcosis. Two sterilized cottom wads of each about 6 mg were implanted simultaneously subcutaneously on the lateral side of the spinal. After awakening the animals were stored 5 per cage and were supplied with normal food and 1% sodium chloride solution as drinking water. On the eighth test day the animals were sacrificed by ether narcosis. The granuloma formed around the cotton wads were carefully recovered and thymus and body weights were measured. The two granuloma from each animal were dried over night at 80° C and weighed. After subtraction of the initial weight of the cotton wads the weight increase was used as a measure of the granulom growth.
The test substances were used dissolved in ethyl acetate. Under aseptic conditions 0.05 ml of said solutions were injected into each of the cotton wads, whereafter the solvent was allowed to evaporate in the desiccator. Normally 3 concentrations of each test substance with the standard doses 3.3, 30 and 270 γ/animal were investigated. Each test group normally comprised 10 rats. The cotton wads of the control group were injected with only ethyl acetate, but were in other respects treated in the same way. When considering the effects of the test substances the average values of granulom growth, thymus weight and body weight increase day 0-8 were measured in each group in absolute figures and in % of the corresponding figure of the control group. Dose-response curves were drafted and used for estimating the doses giving 50 % reduction of granulom growth and of thymus weight and 25 % decrease of body weight increase.
The following Table 4 discloses the results of the cotton-pellet test hereinbefore described, giving in addition figures for the therapeutic ratios, that is, the ratios of the ED50 for thymus weight inhibition divided by the ED50 for granuloma formation inhibition, and the ED25 for body weight increase inhibition over the ED50 for granuloma formation inhibition. As will be recognized, the higher the number for the therapeutic ratio, the more favorable the therapeutic ratio. […] As will be noted for the table, the therapeutic ratio for thymus over granuloma for the Component A esters is 4.2, 7.1, 4.5, 2.6, 2.2, 1.7, 2.5 and 1.7 times as good as it is for the corresponding Component B ester isomer, whereas the therapeutic ratio for the Component A ester isomer as far as body weight is granuloma 2.7, 3.3, 9.8, 6.4, 2.3, 2.8, 3.3 and 2.8 times as favorable as for the corresponding Component B ester isomer.

Structure (SMILES)	ED25 body weight increase inhibition (rat, in vivo)	ED50 thymus weight inhibition (rat, in vivo)	Therapeutic ratio body weight/granuloma (rat, in vivo)	Therapeutic ratio thymus/granuloma (rat, in vivo)	Dose required to obtain 50% inhibition of Granuloma growth	Dose required to obtain 25% inhibition of Body weight Increase (rat, in vivo)	Dose required to obtain 50% inhibition of Thymus weight (rat, in vivo)	Therapeutic ratio body weight/granuloma (Table 4, ED25 body weight increase inhibition over ED50 granuloma formation inhibition)	Therapeutic ratio thymus/granuloma (Table 4, ED50 thymus weight inhibition divided by ED50 granuloma formation inhibition)
CCCC1O[C@@H]2C[C@H]3[C@@H]4CCC5=CC(=O)C=C[C@]5(C)[C@H]4[C@@H](O)C[C@]3(C)[C@]2(C(=O)COC(=O)c2cc3ccccc3o2)O1 (single isomer, unassigned) [28 A]	100 µg/animal	100 µg/animal	> 33.3	> 33.3	–	–	–	–	–
CCCCCC1O[C@@H]2C[C@H]3[C@@H]4CCC5=CC(=O)C=C[C@]5(C)[C@@]4(F)[C@@H](O)C[C@]3(C)[C@]2(C(=O)CO)O1 (single isomer, unassigned) [5 B]	–	–	–	–	10 γ/animal	> 270 γ/animal	90 γ/animal	–	–
CCCC1O[C@@H]2C[C@H]3[C@@H]4C[C@H](F)C5=CC(=O)C=C[C@]5(C)[C@@]4(F)[C@@H](O)C[C@]3(C)[C@]2(C(=O)CO)O1 (single isomer, unassigned) [8 A]	–	–	–	–	6 γ/animal	50 γ/animal	13 γ/animal	–	–
CC1O[C@@H]2C[C@H]3[C@@H]4CCC5=CC(=O)C=C[C@]5(C)[C@@]4(F)[C@@H](O)C[C@]3(C)[C@]2(C(=O)COC(=O)c2cc3ccccc3o2)O1 (stereo partly drawn) [16 A]	> 45 µg/animal	70 µg/animal	–	–	5 γ/animal	> 45 γ/animal	70 γ/animal	> 9.0	14.0
CC1(C)O[C@@H]2C[C@H]3[C@@H]4CCC5=CC(=O)C=C[C@]5(C)[C@H]4[C@@H](O)C[C@]3(C)[C@]2(C(=O)CO)O1 [Prednacinolone acetonide, reference compound]	–	–	–	–	270 γ/animal	> 270 γ/animal	105 γ/animal	–	–
CC1O[C@@H]2C[C@H]3[C@@H]4C[C@H](F)C5=CC(=O)C=C[C@]5(C)[C@@]4(F)[C@@H](O)C[C@]3(C)[C@]2(C(=O)CO)O1 (single isomer, unassigned) [7 A]	–	–	–	–	15 γ/animal	20 γ/animal	12 γ/animal	–	–
CC1O[C@@H]2C[C@H]3[C@@H]4C[C@H](F)C5=CC(=O)C=C[C@]5(C)[C@@]4(F)[C@@H](O)C[C@]3(C)[C@]2(C(=O)CO)O1 (single isomer, unassigned) [7 B]	–	–	–	–	10 γ/animal	15 γ/animal	6 γ/animal	–	–
CCCC1OC2CC3C4CCC5=CC(=O)C=CC5(C)C4(F)C(O)CC3(C)C2(C(=O)COC(=O)c2cccnc2)O1 (mixture of isomers) [21 A+B]	–	–	–	–	7 γ/animal	10 γ/animal	35 γ/animal	–	–
CCCC1O[C@@H]2C[C@H]3[C@@H]4CCC5=CC(=O)C=C[C@]5(C)[C@@]4(F)[C@@H](O)C[C@]3(C)[C@]2(C(=O)COC(=O)c2cccnc2)O1 (single isomer, unassigned) [21 B]	–	–	–	–	< 3 γ/animal	5 γ/animal	10 γ/animal	–	–
CCCC1OC2CC3C4CCC5=CC(=O)C=CC5(C)C4C(O)CC3(C)C2(C(=O)COC(C)=O)O1 (mixture of isomers) [27 A+B]	–	–	–	–	< 3 γ/animal	40 γ/animal	60 γ/animal	–	–
CC1O[C@@H]2C[C@H]3[C@@H]4CCC5=CC(=O)C=C[C@]5(C)[C@@]4(F)[C@@H](O)C[C@]3(C)[C@]2(C(=O)COC(=O)c2cccnc2)O1 (single isomer, unassigned) [17 A]	–	–	–	–	7 γ/animal	20 γ/animal	45 γ/animal	–	–
CCCC1OC2CC3C4CCC5=CC(=O)C=CC5(C)C4(F)C(O)CC3(C)C2(C(=O)COC(=O)c2cc3ccccc3o2)O1 (mixture of isomers) [20 A+B]	–	–	–	–	< 3 γ/animal	20 γ/animal	25 γ/animal	–	–
CCCC1O[C@@H]2C[C@H]3[C@@H]4C[C@H](F)C5=CC(=O)C=C[C@]5(C)[C@@]4(F)[C@@H](O)C[C@]3(C)[C@]2(C(=O)COC(=O)c2cc3ccccc3o2)O1 (single isomer, unassigned) [25 B]	20 µg/animal	7 µg/animal	> 2.9	> 2.3	< 3 γ/animal	20 γ/animal	7 γ/animal	–	–
CCCC1O[C@@H]2C[C@H]3[C@@H]4CCC5=CC(=O)C=C[C@]5(C)[C@H]4[C@@H](O)C[C@]3(C)[C@]2(C(=O)CO)O1 (single isomer, unassigned) [12 A]	–	–	–	–	125 γ/animal	> 270 γ/animal	125 γ/animal	–	–
CCCC1O[C@@H]2C[C@H]3[C@@H]4C[C@H](F)C5=CC(=O)C=C[C@]5(C)[C@@]4(F)[C@@H](O)C[C@]3(C)[C@]2(C(=O)CO)O1 (single isomer, unassigned) [8 B]	–	–	–	–	4 γ/animal	50 γ/animal	10 γ/animal	–	–
CCCCC(=O)OCC(=O)C12OC(CCC)OC1CC1C3CCC4=CC(=O)C=CC4(C)C3(F)C(O)CC12C (mixture of isomers) [22 A+B]	–	–	–	–	10 γ/animal	30 γ/animal	50 γ/animal	–	–
CC1O[C@@H]2C[C@H]3[C@@H]4CCC5=CC(=O)C=C[C@]5(C)[C@@]4(F)[C@@H](O)C[C@]3(C)[C@]2(C(=O)CO)O1 (stereo partly drawn) [1 A+B]	–	–	–	–	120 γ/animal	> 270 γ/animal	270 γ/animal	–	–
